Measurements from patent publication US11026944B2, “Compositions and methods for treating insomnia” (Eisai R&D Management Co., Ltd., priority 2014, dated 2021).

Legend:
[1] = test system: subjects with primary insomnia; test: 001 Study Part B: polysomnography (LPS, WASO, SE); type: in vivo, human; conditions: zolpidem 10 mg single evening dose
Description: For Part B, 58 otherwise healthy subjects with primary insomnia were randomized across three cohorts, and stratified by gender. Part B also included an active control (zolpidem) and matching placebo. In each cohort, there were approximately 12 subjects in the compound A/zolpidem-matched placebo group, approximately four subjects in the zolpidem/compound A-matched placebo group, and approximately four subjects in the compound A-matched placebo/zolpidem-matched placebo group. Part B dosing occurred in the evening, 30 minutes prior to the sleep period. The starting dose for Part B was 3 dose levels that determined to be safe and well tolerated in Part A. Subsequent dose levels in Part B were determined based on the PD results of the first cohort in Part B and PD and safety results from at least 3 completed higher dose cohorts in Part A. Each cohort in Part B was divided into at least two groups, with dosing of each group staggered by a minimum of 2 days.
(§1) After the initial Screening visit, eligible subjects were scheduled to return to the clinic for 2 days during the Screening Period to conduct screening/baseline PSGs. These two days occurred at least 3 days after the initial Screening visit and within a window from Day-7 to Day-6 (±2 days). The first PSG was used to screen for sleep apnea and periodic limb movements in sleep (PLMS) and serve as the first baseline PSG. The second PSG was used as the second baseline PSG. Specific PSG variables were used to determine whether subjects met PSG inclusion criteria, and the average of PSG variables from these two PSGs was used as Baseline for this PD measure. Subjects who had met PSG inclusion criteria returned to the clinic on Day-1 for additional baseline procedures and randomization. Subjects were not allowed to nap on Day 1. On the evening of Day 1, after fasting a minimum of 3 hours, study drug was administered 30 minutes prior to the subject's habitual bedtime (lights-out), as calculated from the sleep diary for the first PSG during the Screening Period. PK blood samples were collected at prespecified timepoints, and PD assessments were performed. PSG was recorded on Day 1, postdose. Subjects were administered additional PD assessments each morning on Day 1 through Day 6. These assessments included the KSS, DSST, and PVT, in order to assess daytime sleepiness, level of alertness, and ability to concentrate. The KSS and DSST were also administered 5 minutes predose and 25 minutes postdose on Day 1, just prior to lights-out. Waketime Questionnaires were administered after the PD assessments within 15 minutes of lights-on, on Day 1 to Day 6. Time and duration of naps was recorded on Day 2.
In addition, PSG was performed during the Screening Period at Days-7 and -6 (±2 days), and postdose on Day 1. An 8-hour diagnostic PSG consisting of electroencephalogram (EEG), electrooculogram (EOG), electromyogram (EMG), ECGs, leg electrodes, and measures of respiratory function (airflow, respiratory effort, and oxygen saturation) were performed starting at the subject's habitual bedtime as determined from the sleep diary for the 3 nights immediately prior to the first PSG on Day-7 (±2 days). PSG variables from this night were used to screen for sleep apnea and PLMS. On Day-6 (±2) and postdose on Day1, standard PSGs (i.e., not including leg electrodes or measures of respiratory function other than oxygen saturation) were performed. Specified PSG variables from these two PSGs conducted during the Screening Period were used to determine whether subjects met PSG inclusion criteria. The average of PSG variables from these two PSGs conducted during the Screening Period were used as baseline PSG values. The key PD parameters such as PSG LPS, TST, SE, and WASO have been obtained from all PSG recordings.

[2] = test system: subjects with primary insomnia; test: 001 Study Part B: next day KSS, DSST, PVT; type: in vivo, human; conditions: any dose of compound A (2.5, 10, 25 mg); zolpidem 10 mg
Description: as §1
Part B subjects were administered the KSS, DSST, and PVT within 15 minutes after lights-on specifically in that order, on each morning from Day 1 through Day 6, followed by the Waketime Questionnaire. The KSS and DSST were also administered 5 minutes predose and 25 minutes postdose on Day 1 (just prior to lights-out).

Cc1ccc(-c2nc3ccc(C)cn3c2CC(=O)N(C)C)cc1 [zolpidem, reference compound]
change from Baseline in SE [1]: 13% | next day effects on KSS, DSST, or PVT [2]: no clinically significant next day effects
